Measured values from patent publication US20230065740A1, “CYCLIN-DEPENDENT KINASE INHIBITORS” (SPV THERAPEUTICS INC., priority 2018, published 2023).

Assays:
[1] = target: CDK4-CYCLIND1 (Homo sapiens, UniProt P11802); assay: Microfluidic LabChip kinase inhibition assay, CDK4-CyclinD1; conditions: CDK4 IC50 (μM), Table 2; 200 μM ATP, 1 nM enzyme
Protocol: Inhibition assays were performed using microfluidic LabChip 300 Drug Discovery System from Caliper Life Sciences. […] The assay has a total volume of 10 μL consisting of 5 μL of enzyme and buffer and 5 μL of substrate and buffer. The test compounds were diluted in 100% dimethylsulfoxide (DMSO) using 3-fold dilution steps. […] Compounds were tested in a single well for each dilution and the final concentration of DMSO was maintained at 1%.
The assay buffer contained 100 mM HEPES, pH 7.5, 0.01% Triton X-100, 0.1% bovine serum albumin (BSA), 5 mM MgCl2; 1 mM dithiothreitol (DTT), 10 μM sodium orthovanadate, and 10 μM β-glycerophosphate.
The assay was conducted by adding 5 μL of enzyme, adenosine triphosphate (ATP) and buffer to an assay plate. A 100 nL aliquot of the diluted compounds were added to the plate. The assay was initiated by the addition of 5 μL of phosphoenolpyruvate substrate (PEP) in buffer. […] The reaction was terminated by the addition of EDTA. The plates were analyzed using a Caliper LabChip 3000.

[2] = target: T1, CDK6-CYCLIND3 (Homo sapiens, UniProt Q00534); assay: Microfluidic LabChip kinase inhibition assay, CDK6-CyclinD3; assay type: biochemical; conditions: Table 2; 300 μM ATP, 2 nM enzyme; read-out: CDK6 IC50
T1 construct: purchased Carna
T1 sequence (Q00534 whole entry): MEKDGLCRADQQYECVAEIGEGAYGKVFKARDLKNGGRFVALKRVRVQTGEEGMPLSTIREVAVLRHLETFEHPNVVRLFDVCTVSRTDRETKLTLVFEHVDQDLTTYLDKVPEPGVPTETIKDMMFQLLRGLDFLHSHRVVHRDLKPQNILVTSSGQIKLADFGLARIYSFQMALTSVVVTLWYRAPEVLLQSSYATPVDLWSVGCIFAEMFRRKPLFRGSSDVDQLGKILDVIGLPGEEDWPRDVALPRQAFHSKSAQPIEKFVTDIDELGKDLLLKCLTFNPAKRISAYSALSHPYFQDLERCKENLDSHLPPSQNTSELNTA
T1 sequence (P30281 whole entry partner): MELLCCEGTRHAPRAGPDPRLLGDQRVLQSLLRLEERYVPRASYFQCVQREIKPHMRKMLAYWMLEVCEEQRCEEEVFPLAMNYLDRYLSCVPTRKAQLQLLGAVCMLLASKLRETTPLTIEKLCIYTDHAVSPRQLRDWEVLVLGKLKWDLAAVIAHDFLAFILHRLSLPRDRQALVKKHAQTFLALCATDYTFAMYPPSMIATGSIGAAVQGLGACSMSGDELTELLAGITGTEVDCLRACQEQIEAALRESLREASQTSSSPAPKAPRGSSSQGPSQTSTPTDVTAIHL

Sequence of CDK4-CYCLIND1 (P11802 whole entry): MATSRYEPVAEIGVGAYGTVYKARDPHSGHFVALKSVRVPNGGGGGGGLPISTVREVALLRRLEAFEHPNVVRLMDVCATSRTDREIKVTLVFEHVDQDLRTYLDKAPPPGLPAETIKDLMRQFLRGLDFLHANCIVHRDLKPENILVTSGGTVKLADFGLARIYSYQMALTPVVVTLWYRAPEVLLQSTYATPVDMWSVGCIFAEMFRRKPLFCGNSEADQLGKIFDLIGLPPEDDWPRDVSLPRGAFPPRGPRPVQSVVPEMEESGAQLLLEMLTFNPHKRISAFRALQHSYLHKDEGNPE
Sequence of CDK4-CYCLIND1 (P24385 whole entry partner): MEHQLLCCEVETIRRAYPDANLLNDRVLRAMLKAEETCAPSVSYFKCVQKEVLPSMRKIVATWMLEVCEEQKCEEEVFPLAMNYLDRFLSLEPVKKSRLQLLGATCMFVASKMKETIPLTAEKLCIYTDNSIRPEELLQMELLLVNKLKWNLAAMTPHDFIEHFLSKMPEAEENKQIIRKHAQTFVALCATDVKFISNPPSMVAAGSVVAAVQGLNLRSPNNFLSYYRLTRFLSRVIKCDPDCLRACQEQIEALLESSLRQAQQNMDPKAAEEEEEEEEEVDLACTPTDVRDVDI

| SMILES | IC50 [1] [µM] | IC50 [2] [nM] |
| --- | --- | --- |
| CN1CCN(c2ccc(Nc3ncc4c(n3)N(C3CCCC3)C3(CC(=O)N(C)C3=O)C4)nc2)CC1 (stereo not shown) [Compound C66, 7′-cyclopentyl-1-methyl-2′-((5-(4-methylpiperazin-1-yl)pyridin-2-yl)amino)-5′,7′-dihydrospiro[pyrrolidine-3,6′-pyrrolo[2,3-d]pyrimidine]-2,5-dione] | 29.8 | > 30000 |
| CC(C)N1CCN(c2ccc(Nc3ncc4c(n3)N(C3CCCC3)C3(CC(=O)N(C)C3=O)C4)nc2)CC1 (stereo not shown) [Compound C67, 7′-cyclopentyl-2′-((5-(4-isopropylpiperazin-1-yl)pyridin-2-yl)amino)-1-methyl-5′,7′-dihydrospiro[pyrrolidine-3,6′-pyrrolo[2,3-d]pyrimidine]-2,5-dione] | 26.7 | > 30000 |
| CN1C(=O)CC2(Cc3cnc(Nc4ccc(N5CCNCC5)c(F)c4)nc3N2C2CCCC2)C1=O (stereo not shown) [Compound C71, 7′-cyclopentyl-2′-((3-fluoro-4-(piperazin-1-yl)phenyl)amino)-1-methyl-5′,7′-dihydrospiro[pyrrolidine-3,6′-pyrrolo[2,3-d]pyrimidine]-2,5-dione] | 4.94 | 11700 |
| CN1CCN(c2ccc(Nc3ncc4c(n3)N(C3CCCC3)C3(CC(=O)N(C)C3=O)C4)cc2F)CC1 (stereo not shown) [Compound C72, 7′-cyclopentyl-2′-((3-fluoro-4-(4-methylpiperazin-1-yl)phenyl)amino)-1-methyl-5′,7′-dihydrospiro[pyrrolidine-3,6′-pyrrolo[2,3-d]pyrimidine]-2,5-dione] | 2.53 | 13900 |
| CC(C)N1CCN(c2ccc(Nc3ncc4c(n3)N(C3CCCC3)C3(CC(=O)N(C)C3=O)C4)cc2F)CC1 (stereo not shown) [Compound C73, 7′-cyclopentyl-2′-((3-fluoro-4-(4-isopropylpiperazin-1-yl)phenyl)amino)-1-methyl-5′,7′-dihydrospiro[pyrrolidine-3,6′-pyrrolo[2,3-d]pyrimidine]-2,5-dione] | 1.94 | 9740 |
| CC(C)N1CCN(c2ccc(Nc3ncc4c(n3)N(C3CCCC3)C3(CC(=O)NC3=O)C4)nc2)CC1 (stereo not shown) [Compound C76, 7′-cyclopentyl-2′-((5-(4-isopropylpiperazin-1-yl)pyridin-2-yl)amino)-5′,7′-dihydrospiro[pyrrolidine-3,6′-pyrrolo[2,3-d]pyrimidine]-2,5-dione] | 0.103 | 139 |
| CN1CCN(c2ccc(Nc3ncc4c(n3)N(C3CCCC3)C3(CC(=O)NC3=O)C4)cc2)CC1 (stereo not shown) [Compound C78, 7-cyclopentyl-2′-((4(4-methylpiperazin-1-yl)phenyl)amino)-5′,7′-dihydrospiro[pyrrolidine-3,6′-pyrrolo[2,3-d]pyrimidine]-2,5-dione] | 0.0667 | 350 |
| O=C1CC2(Cc3cnc(Nc4ccc(N5CCNCC5)c(F)c4)nc3N2C2CCCC2)C(=O)N1 (stereo not shown) [Compound C80, 7′-cyclopentyl-2′-((3-fluoro-4-(piperazin-1-yl)phenyl)amino)-5′,7′-dihydrospiro[pyrrolidine-3,6′-pyrrolo[2,3-d]pyrimidine]-2,5-dione] | 0.0134 | 79.2 |
| CN1CCN(c2ccc(Nc3ncc4c(n3)N(C3CCCC3)C3(CC(=O)NC3=O)C4)cc2F)CC1 (stereo not shown) [Compound C81, 7′-cyclopentyl-2′-((3-fluoro-4-(4-methylpiperazin-1-yl)phenyl)amino)-5′,7′-dihydrospiro[pyrrolidine-3,6′-pyrrolo[2,3-d]pyrimidine]-2,5-dione] | 0.0162 | 73.3 |
| O=C1CC2(Cc3cnc(Nc4ccc(N5CCNCC5)nc4)nc3N2C2CCCC2)C(=O)N1 (stereo not shown) [Compound C83, 7′-cyclopentyl-2′-((6-(piperazin-1-yl)pyridin-3-yl)amino)-5′,7′-dihydrospiro[pyrrolidine-3,6′-pyrrolo[2,3-d]pyrimidine]-2,5-dione] | 0.0516 | 168 |
| CN1CCN(c2ccc(Nc3ncc4c(n3)N(C3CCCC3)C3(CC(=O)NC3=O)C4)cn2)CC1 (stereo not shown) [Compound C84, 7′-cyclopentyl-2′-((6-(4-methylpiperazin-1-yl)pyridin-3-yl)amino)-5′,7′-dihydrospiro[pyrrolidine-3,6′-pyrrolo[2,3-d]pyrimidine]-2,5-dione] | 0.0399 | 173 |
| CC(C)N1CCN(c2ccc(Nc3ncc4c(n3)N(C3CCCC3)C3(CC(=O)NC3=O)C4)cn2)CC1 (stereo not shown) [Compound C85, 7′-cyclopentyl-2′-((6-(4-isopropylpiperazin-1-yl)pyridin-3-yl)amino)-5′,7′-dihydrospiro[pyrrolidine-3,6′-pyrrolo[2,3-d]pyrimidine]-2,5-dione] | 0.0489 | 214 |
| O=C1CC2(Cc3cnc(Nc4ccc(N5CCOCC5)c(F)c4)nc3N2C2CCCC2)C(=O)N1 (stereo not shown) [Compound C86, 7′-cyclopentyl-2′-((3-fluoro-4-morpholinophenyl)amino)-5′,7′-dihydrospiro[pyrrolidine-3,6′-pyrrolo[2,3-d]pyrimidine]-2,5-dione] | 0.101 | 461 |

Continued, values first:

| IC50 [1] [µM] | IC50 [2] [nM] | SMILES |
| --- | --- | --- |
| 2.49 | 6680 | CN1C(=O)CC2(Cc3cnc(Nc4ccc(N5CCNCC5)cc4)nc3N2C2CCCC2)C1=O (stereo not shown) [Compound C68, 7′-cyclopentyl-1-methyl-2′-((4-(piperazin-1-yl)phenyl)amino)-5′,7′-dihydrospiro[pyrrolidine-3,6′-pyrrolo[2,3-d]pyrimidine]-2,5-dione] |
| 1.08 | 2790 | CN1CCN(c2ccc(Nc3ncc4c(n3)N(C3CCCC3)C3(CC(=O)N(C)C3=O)C4)cc2)CC1 (stereo not shown) [Compound C69, 7′-cyclopentyl-1-methyl-2′-((4-(4-methylpiperazin-1-yl)phenyl)amino)-5′,7′-dihydrospiro[pyrrolidine-3,6′-pyrrolo[2,3-d]pyrimidine]-2,5-dione] |
| 0.159 | 346 | CC(C)N1CCN(c2ccc(Nc3ncc4c(n3)N(C3CCCC3)C3(CC(=O)N(C)C3=O)C4)cc2)CC1 (stereo not shown) [Compound C70, 7′-cyclopentyl-2′-((4-(4-isopropylpiperazin-1-yl)phenyl)amino)-1-methyl-5′,7′-dihydrospiro[pyrrolidine-3,6′-pyrrolo[2,3-d]pyrimidine]-2,5-dione] |
| 22.7 | 84500 | O=C1CC2(Cc3cnc(Nc4ccc(N5CCNCC5)cn4)nc3N2C2CCCC2)C(=O)N1 (stereo not shown) [Compound C74, 7′-cyclopentyl-2′-((5-(piperazin-1-yl)pyridin-2-yl)amino)-5′,7′-dihydrospiro[pyrrolidine-3,6′-pyrrolo[2,3-d]pyrimidine]-2,5-dione] |
| 0.0203 | 34.8 | CN1CCN(c2ccc(Nc3ncc4c(n3)N(C3CCCC3)C3(CC(=O)NC3=O)C4)nc2)CC1 (stereo not shown) [Compound C75, 7′-cyclopentyl-2′-((5-(4-methylpiperazin-1-yl)pyridin-2-yl)amino)-5′,7′-dihydrospiro[pyrrolidine-3,6′-pyrrolo[2,3-d]pyrimidine]-2,5-dione] |
| 0.0251 | 131 | O=C1CC2(Cc3cnc(Nc4ccc(N5CCNCC5)cc4)nc3N2C2CCCC2)C(=O)N1 (stereo not shown) [Compound C77, 7′-cyclopentyl-2′-((4-(piperazin-1-yl)phenyl)amino)-5′,7′-dihydrospiro[pyrrolidine-3,6′-pyrrolo[2,3-d]pyrimidine]-2,5-dione] |
| 0.021 | 130 | CC(C)N1CCN(c2ccc(Nc3ncc4c(n3)N(C3CCCC3)C3(CC(=O)NC3=O)C4)cc2)CC1 (stereo not shown) [Compound C79, 7′-cyclopentyl-2′-((4-(4-isopropylpiperazin-1-yl)phenyl)amino)-5′,7′-dihydrospiro[pyrrolidine-3,6′-pyrrolo[2,3-d]pyrimidine]-2,5-dione] |
| 0.0222 | 124 | CC(C)N1CCN(c2ccc(Nc3ncc4c(n3)N(C3CCCC3)C3(CC(=O)NC3=O)C4)cc2F)CC1 (stereo not shown) [Compound C82, 7′-cyclopentyl-2′-((3-fluoro-4-(4-isopropylpiperazin-1-yl)phenyl)amino)-5′,7′-dihydrospiro[pyrrolidine-3,6′-pyrrolo[2,3-d]pyrimidine]-2,5-dione] |
| 14.9 | 78100 | CN1CCN(c2ccc(Nc3ncc4c(n3)N(C3CCCC3)C3(CC(=O)NC3=O)C4)c(F)c2)CC1 (stereo not shown) [Compound C87, 7′-cyclopentyl-2′-((2-fluoro-4-(4-methylpiperazin-1-yl)phenyl)amino)-5′,7′-dihydrospiro[pyrrolidine-3,6′-pyrrolo[2,3-d]pyrimidine]-2,5-dione] |
| 0.097 | 359 | CN(C)CCOc1ccc(Nc2ncc3c(n2)N(C2CCCC2)C2(CC(=O)NC2=O)C3)cn1 (stereo not shown) [Compound C88, 7′-cyclopentyl-2′-((6-(2-(dimethylamino)ethoxy)pyridin-3-yl)amino)-5′,7′-dihydrospiro[pyrrolidine-3,6′-pyrrolo[2,3-d]pyrimidine]-2,5-dione] |
| 0.143 | 562 | CN(C)CCOc1ccc(Nc2ncc3c(n2)N(C2CCCC2)C2(CC(=O)NC2=O)C3)cc1 (stereo not shown) [Compound C89, 7′-cyclopentyl-2′-((4-(2-(dimethylamino)ethoxy)phenyl)amino)-5′,7′-dihydrospiro[pyrrolidine-3,6′-pyrrolo[2,3-d]pyrimidine]-2,5-dione] |
| 0.072 | 255 | O=C1CC2(Cc3cnc(Nc4ccc(OCCN5CCCC5)nc4)nc3N2C2CCCC2)C(=O)N1 (stereo not shown) [Compound C90, 7′-cyclopentyl-2′-((6-(2-(pyrrolidin-1-yl)ethoxy)pyridin-3-yl)amino)-5′,7′-dihydrospiro[pyrrolidine-3,6′-pyrrolo[2,3-d]pyrimidine]-2,5-dione] |
| 0.0554 | 239 | O=C1CC2(Cc3cnc(Nc4ccc(OCCN5CCCC5)c(F)c4)nc3N2C2CCCC2)C(=O)N1 (stereo not shown) [Compound C91, 7′-cyclopentyl-2′-((3-fluoro-4-(2-(pyrrolidin-1-yl)ethoxy)phenyl)amino)-5′,7′-dihydrospiro[pyrrolidine-3,6′-pyrrolo[2,3-d]pyrimidine]-2,5-dione] |
